Patent publication US20220184000A1, “USE OF CANNABIDIOL IN THE TREATMENT OF DRAVET SYNDROME” (priority 2019, published 2022)

Assays:
Type in all cases: in vivo
Scn1a^−/− mice = assay: Survival in Scn1a^−/− mice, Study I (acute model of Dravet syndrome); conditions: CBD-treated Scn1a^−/− mice; 100 mg/kg s.c. twice daily from P8; n=10; vehicle 15.5 days; Mantel-Cox p=0.003; FIG. 1B
Description: Following genotyping, animals were randomly divided into four groups WT vehicle-treated, WT CBD-treated, Scn1a^−/− vehicle-treated and Scn1a^−/− CBD-treated (n=10/group). They were injected subcutaneously twice daily with either CBD (100 mg/kg) or its vehicle (ethanol:Kolliphor®:0.9% saline=2:1:17) from P8 until P25 or death (whichever was earlier).
Animal suffering was minimised by employing a validated, welfare scoring system alongside a mathematical model to predict death. In this way, any animal for which the model predicted death could be sacrificed 0.5 day before enduring the maximal severity of the disease.
Additionally, surface temperature (ST) threshold was employed such that if the sum of the ST scores over the last 1.5 days, was equal to or greater than 3, the animal would be killed by cervical dislocation within 0.5 day.
In Study I, the welfare parameters were analysed using SPSS 24 (IBM SPSS Statistics®, UK), whilst survival data were analysed using GraphPad Prism 6 software (GraphPad Software, Inc., USA). Data obtained from welfare parameters were compared using a three-way ANOVA to observe the main effects of treatment, genotype and time, and their two-way and three-way interactions. […] All the data are expressed as mean±SEM. […]

Scn1a^+/− mice [1] = assay: Static beam test (motor function), Study II; conditions: CBD 100 mg/kg s.c. twice daily
Description: (§1) Here, Scn1a^+/− were randomly divided into two groups and subcutaneously injected with either CBD (100 mg/kg twice daily; n=12) or its vehicle (ethanol:Kolliphor®:0.9% saline=2:1:17; n=29) from P8 onwards until P52 or death (whichever was earlier).
The static beam task was further employed to analyse balance and coordination (Sedy, Urdzikova, Jendelova, & Sykova, 2008), where the animals were required to walk along a cylindrical elevated beam (100 cm long, 0.9 cm diameter and 50 cm height from floor) and enter a dark enclosure at the beam end. The mice were habituated to the task for three consecutive days before the test day. […] The test was video monitored (Sony DCR-SX21E) and blinded offline analysis was conducted (Observer XT 12, Noldus, The Netherlands) to evaluate the average number of foot slips made from two consecutive trials.
(§2) In Study II, the data were analysed in GraphPad Prism 6 software. […] Data obtained from rotarod, gait, social interaction (active interaction), EPM, sucrose preference, RAM (RME) tests were normally distributed and the differences between the three groups were analysed by one-way ANOVA. […] Parametric data are presented in scattered dot plot in the figures and are expressed as mean±SEM. Non-parametric data are presented in box plot in the figures and are expressed as median, min to max, and interquartile range (IQR). […]

Scn1a^+/− mice [2] = assay: Elevated plus maze (EPM) test, anxiety-like behaviour, Study II; conditions: CBD 100 mg/kg s.c. twice daily
Description: as §1
The elevated plus maze (EPM) test was performed to assess the level of anxiety in animals (M. Chen et al., 2017). The wooden test apparatus consists of two closed arms (50×10×40 cm) and two open arms (50×10 cm) connected via a central platform (10×10 cm) and raised at a height of 50 cm above the floor. Each animal was placed on the central platform facing towards an open arm. Activity was video recorded (Swann SRDVR-16440H, UK) for 5 minutes. The video files were blinded and coded offline at the end of all experiments using Observer XT 12 (Noldus, Netherlands). Time spent on open arms was inversely related to the level of anxiety.
as §2

Scn1a^+/− mice [3] = assay: Eight-arm radial arm maze (RAM) test, cognition, Study II; conditions: CBD 100 mg/kg s.c. twice daily
Description: as §1
A radial arm maze (RAM) consisting of eight arms (each arm 60×10 cm; raised at 50 cm above the floor) was used to assess the reference memory (RM) and working memory (WM) of the animals. On four consecutive days, animals were given two 10-minute sessions of habituation to the test apparatus and rules of the test, separated by a 90 min interval. During the first two days of habituation, food rewards (¼ Cheerios®, Nestle) were randomly scattered on the floor of the apparatus covering all arms and food-troughs at the end of each arm. On the 3rd and 4th habituation day, food rewards were placed only in food troughs of four randomly selected arms (fixed for each animal during the habituation and test day). Food was withdrawn 4-6 hours before the trial (both during habituation and test days) to motivate the animals to locate the rewards and thus perform the task. On the test day two trials of 10 min were conducted at 90 min interval and the activity of the animals were video recorded for offline blinded coding after the end of experiment. Entry to a non-baited arm was considered as a reference memory error (RME), whereas re-entry to a previously baited arm from which the food was already taken is considered as a working memory error (WME). The mean WME or RME were calculated from the two test trials.
In Study II, the data were analysed in GraphPad Prism 6 software. Survival curves of Scn1a^+/− vehicle-treated and Scn1a^+/− CBD-treated group were compared using a Mantel-Cox test. The percentage of animals from the Scn1a^+/− vehicle-treated and Scn1a^+/− CBD-treated groups that survived until the end of the study (P52) were compared by Fisher's exact test. Further, data obtained from the comorbidity assessment were checked for normality by D'Agostino & Pearson omnibus normality test. Data obtained from rotarod, gait, social interaction (active interaction), EPM, sucrose preference, RAM (RME) tests were normally distributed and the differences between the three groups were analysed by one-way ANOVA. If a significant difference was found then Holm-Sidak post-hoc test was conducted among the groups. […] Upon observing a significant difference, the Dunn's post-hoc test was employed to compare the groups. Multiple comparisons were corrected in all cases. Parametric data are presented in scattered dot plot in the figures and are expressed as mean±SEM. Non-parametric data are presented in box plot in the figures and are expressed as median, min to max, and interquartile range (IQR). […]

C=C(C)[C@@H]1CCC(C)=C[C@H]1c1c(O)cc(CCCCC)cc1O [CBD, cannabidiol]
median survival (Scn1a^−/− mice): 16.25 days
number of foot slips, Scn1a^+/− CBD-treated versus Scn1a^+/− vehicle-treated (Scn1a^+/− mice [1]; p=0.23, FIG. 3B): no significant difference
number of foot slips, Scn1a^+/− CBD-treated versus WT vehicle-treated (Scn1a^+/− mice [1]; p=0.48): no significant difference
time spent on open arms (EPM), Scn1a^+/− CBD-treated versus WT vehicle-treated (Scn1a^+/− mice [2]; p=0.73): not different
time spent on open arms (EPM), Scn1a^+/− vehicle-treated compared to Scn1a^+/− CBD-treated (Scn1a^+/− mice [2]; statement describes vehicle group relative to CBD group (n=10), p=0.02, FIG. 4C): significantly less time on the open arms
reference memory errors (RME), Scn1a^+/− CBD-treated versus WT vehicle-treated (Scn1a^+/− mice [3]; p=0.65): No difference
working memory errors (WME), Scn1a^+/− CBD-treated versus WT vehicle-treated (Scn1a^+/− mice [3]; p>0.9999): not differed
reference memory errors (RME), Scn1a^+/− vehicle-treated compared to Scn1a^+/− CBD-treated (Scn1a^+/− mice [3]; statement describes vehicle group relative to CBD group (n=10), p<0.0001, FIG. 4E): significantly more RME
working memory errors (WME), Scn1a^+/− vehicle-treated compared to Scn1a^+/− CBD-treated (Scn1a^+/− mice [3]; statement describes vehicle group relative to CBD group, p=0.001, FIG. 4F): significantly more WME
